Reference: patent publication US12150981B2, “Chimeric antigen receptor-expressing T cells as anti-cancer therapeutics” (Purdue Research Foundation, priority 2012, dated 2024)

How the values were obtained:
[1] = biological target: T1, folate receptor (FR) on KB cells (Homo sapiens, UniProt P15328); assay: Binding of FITC-Folate conjugates to FR positive KB cancer cells, fluorescence/confocal microscopy
T1 construct: endogenous in cells; host or cells: KB cells
Description: (§1) The ability of the FITC-Folate and FITC-(PEG)12-Folate conjugates to bind folate receptor (FR) positive cancer cells was next investigated. FR positive cells lines L1210A (Mouse lymphocytic leukemia) and KB (Mouth epidermal carcinoma), which are FR positive cell lines, were used to test the binding affinity of the FITC-Folate conjugates. Briefly, 3-4×10^4 cancer cells were prepared to perform binding affinity assays with FITC-Folate and FITC-(PEG)12-Folate conjugates. With two different concentrations (e.g. 20 nM, 70 nM), the two FITC-Folate conjugates were incubated with cancer cells at room temperature for 1 hour. Since both FITC-Folate conjugates have fluorescence, the binding ability of FITC-Folate conjugates to cancer cells can be detected by florescence microscopy. After two washes with 1× phosphate buffered saline (PBS) to remove all unbound compound, the cancer cells were observed by confocal microscope. In order to specify whether FITC-Folate conjugates bind to cancer cells via FR on the surface of cancer cells, Folate Acid was also incubated with cancer cells as a competition compound. […] As shown in competition panel, addition of 50× excess folate acid blocked FITC-Folate binding with these cancer cells, which indicates the specific binding is between folate acid and FR on cell surface.

FR+ KB cells = assay: 51Chromium release cytotoxicity assay of anti-FITC CAR-expressing T cells against KB cells; type: cell-based, human; conditions: 70 nM conjugate, effector:target 20:1, 4-10 hours
[2] = tested on: anti-FITC scFv in CAR4-1BBZ on transduced T cells; assay: Binding of FITC-Folate conjugates to CAR4-1BBZ transduced T cells, confocal microscopy; parameters: species or system mouse
Description: To examine the ability of the transduced T cells containing CAR4-1BBZ to bind the FITC-Folate conjugates, binding assays with the FITC-Folate conjugate and the FITC-(PEG)12-Folate conjugate were performed. Since the excitation wavelength of FITC in the FITC-Folate conjugates overlapped with copGFP in CAR4-1BB transduced T cells, it was difficult to distinguish between FITC binding and copGFP expression. Therefore, an anti-Folate Acid (FA) monoclonal antibody and a fluorephore (excitation 640 nm)-labeled anti-mouse IgG antibody were utilized.
First, the transduced T cells were incubated with FITC-Folate or FITC-(PEG)12-Folate conjugates at room temperature for 1 hour. After washing with 1×PBS, transduced T cells were incubated with anti-FA monoclonal antibody (1:15 dilution) for 1 hour. After another washing with 1×PBS, transduced T cells further were incubated with fluorophore (excitation 640 nm) labeled anti-mouse IgG antibody (1:50 dilution). Finally, unbound antibodies were washed away and a confocal microscope was used to confirm the FITC-Folate and FITC-(PEG)12-Folate conjugates binding ability. All data was analyzed by Olympus Fluoview software. […] Simultaneously, binding of FITC-Folate and FITC-(PEG)12-Folate conjugates (arrows) were also detected on the CAR4-1BBZ transduced T cells.

[3] = tested on: folate receptor (FR) on L1210A cells; assay: Binding of FITC-Folate conjugates to FR positive L1210A cancer cells, fluorescence/confocal microscopy; parameters: species or system mouse
Description: as §1

FR+ L1210A cells = assay: 51Chromium release cytotoxicity assay of anti-FITC CAR-expressing T cells against L1210A cells; type: cell-based, mouse; conditions: 70 nM conjugate, effector:target 20:1, 4-10 hours
Description: In order to explore whether CAR-expressing T cells can kill cancer cells, ^51Chromium release assays were conducted. In this assay, cancer cells are labeled with ^51Cr. When cancer cells are lysed, ^51Cr would be released from cancer cells to supernatant. By measuring ^51Cr in supernatant, the number of cancer cells killed can be determined.
First, target cancer cells L1210A were incubated in 50 μL growth medium containing 50 μCi ^51Chromium to get labeled. After washing with PBS×3, L1210A cells were resuspended and incubated at 37° C. for 1 hour in the growth medium containing 70 nM FITC-Folate conjugate or FITC-(PEG)12-Folate conjugate. After washing away excess FITC conjugates, 5×10^3 target cancer cells were added in each well of 96-well plates. […] After incubation for 4-10 hours, 20 μL aliquots of cell-free supernatant were harvested and ^51Cr in the supernatants was measured with a scintillation counter or a γ-counter.
Percent specific cytolysis was calculated using following formula: % cytolysis=(Experimental ^51Cr release−control ^51Cr release)/(Maximum ^51Cr release−control ^51Cr release)×100
Control wells contained only target cancer cells, effector T cells were never added in these wells. Maximum ^51Cr release was determined by measuring ^51Cr release from labeled target cells treated with 2.5% SDS to lyse all cells.

[4] = tested on: PSMA-positive human prostate cancer cells; conditions: DUPA-(99m)Tc, ref [8]; cited from earlier work
[5] = 20 nM, 70 nM, room temperature 1 hour

T1 sequence (P15328 25-234): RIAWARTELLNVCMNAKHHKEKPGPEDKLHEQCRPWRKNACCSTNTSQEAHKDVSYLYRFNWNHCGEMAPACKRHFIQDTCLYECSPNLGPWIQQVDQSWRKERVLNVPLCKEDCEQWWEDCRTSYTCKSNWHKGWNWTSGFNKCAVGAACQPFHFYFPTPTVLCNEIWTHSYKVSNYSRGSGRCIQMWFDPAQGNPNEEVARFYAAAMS

Structure (SMILES)	binding to KB cells via FR [1, 5]	binding to KB cells in the presence of competitor ([1]; 50× excess folate acid)	cellular localization in KB cells (internalization) ([1]; FIG. 3A, 3C)	cancer cell cytolysis by CAR-expressing T cells in the presence of conjugate (FR+ KB cells) [%]	binding to non-transduced T cells ([2]; non-transduced T cells, same protocol)	binding to anti-FITC in CAR4-1BBZ transduced T cells ([2]; room temperature 1 hour, detected with anti-FA antibody and labeled anti-mouse IgG)	binding to L1210A cells via FR [3, 5]	binding to L1210A cells in the presence of competitor ([3]; 50× excess folate acid)	cancer cell cytolysis by CAR-expressing T cells in the presence of conjugate (FR+ L1210A cells) [%]	Kd [4] [nM]
Nc1nc2ncc(CNc3ccc(C(=O)N[C@@H](CCC(=O)NCCNC(=S)Nc4ccc(-c5c6ccc(=O)cc-6oc6cc(O)ccc56)c(C(=O)O)c4)C(=O)O)cc3)nc2c(=O)[nH]1 (single isomer, unassigned) [FITC-Folate]	can bind	blocked	internalized into KB cell cytoplasm	~18	not to non-transduced T cells	successfully bound	can bind	blocked	~29	
O=C(O)CCC(NC(=O)NC(CCC(=O)O)C(=O)O)C(=O)O (stereo not shown) [DUPA, 2-[3-(1,3-dicarboxypropyl)ureido] pentanedioic acid]										14
